Source: the NIST ThermoML archive (doi:10.1021/je050514j)
Numbers after ± are expanded uncertainties.

Assay: xn = mol fraction of the nth substance listed
Settings: 313.15 K, Fluid (supercritical or subcritical phases)

## CCOC(C)=O [ethyl acetate] + O=C=O
1000 kPa, x2 = 0
  mass density: 876.9 ± 0.4 kg/m3
1000 kPa, x2 = 0.1
  mass density: 880.2 ± 0.4 kg/m3
2000 kPa, x2 = 0
  mass density: 878 ± 0.4 kg/m3
2000 kPa, x2 = 0.1
  mass density: 881.4 ± 0.4 kg/m3
2000 kPa, x2 = 0.2
  mass density: 884.1 ± 0.4 kg/m3
2000 kPa, x2 = 0.3
  mass density: 886.2 ± 0.4 kg/m3
3000 kPa, x2 = 0
  mass density: 878.9 ± 0.4 kg/m3
3000 kPa, x2 = 0.1
  mass density: 882.5 ± 0.4 kg/m3
3000 kPa, x2 = 0.2
  mass density: 885.4 ± 0.4 kg/m3
3000 kPa, x2 = 0.3
  mass density: 887.6 ± 0.4 kg/m3
3000 kPa, x2 = 0.4
  mass density: 888.8 ± 0.4 kg/m3
4000 kPa, x2 = 0
  mass density: 880 ± 0.4 kg/m3
4000 kPa, x2 = 0.1
  mass density: 883.7 ± 0.4 kg/m3
4000 kPa, x2 = 0.2
  mass density: 886.7 ± 0.4 kg/m3
4000 kPa, x2 = 0.3
  mass density: 889.1 ± 0.4 kg/m3
4000 kPa, x2 = 0.4
  mass density: 890.6 ± 0.4 kg/m3
4000 kPa, x2 = 0.5
  mass density: 889.9 ± 0.4 kg/m3
5000 kPa, x2 = 0
  mass density: 881 ± 0.4 kg/m3
5000 kPa, x2 = 0.1
  mass density: 884.7 ± 0.4 kg/m3
5000 kPa, x2 = 0.2
  mass density: 887.9 ± 0.4 kg/m3
5000 kPa, x2 = 0.3
  mass density: 890.5 ± 0.4 kg/m3
5000 kPa, x2 = 0.4
  mass density: 892.2 ± 0.4 kg/m3
5000 kPa, x2 = 0.5
  mass density: 891.9 ± 0.4 kg/m3
6000 kPa, x2 = 0
  mass density: 881.9 ± 0.4 kg/m3
6000 kPa, x2 = 0.1
  mass density: 885.9 ± 0.4 kg/m3
6000 kPa, x2 = 0.2
  mass density: 889.2 ± 0.4 kg/m3
6000 kPa, x2 = 0.3
  mass density: 891.9 ± 0.4 kg/m3
6000 kPa, x2 = 0.4
  mass density: 893.9 ± 0.4 kg/m3
6000 kPa, x2 = 0.5
  mass density: 893.9 ± 0.4 kg/m3
6000 kPa, x2 = 0.6
  mass density: 890.1 ± 0.4 kg/m3
6000 kPa, x2 = 0.7
  mass density: 879.2 ± 1.6 kg/m3
7000 kPa, x2 = 0
  mass density: 882.9 ± 0.5 kg/m3
7000 kPa, x2 = 0.1
  mass density: 887 ± 0.4 kg/m3
7000 kPa, x2 = 0.2
  mass density: 890.4 ± 0.4 kg/m3
7000 kPa, x2 = 0.3
  mass density: 893.3 ± 0.4 kg/m3
7000 kPa, x2 = 0.4
  mass density: 895.4 ± 0.4 kg/m3
7000 kPa, x2 = 0.5
  mass density: 895.8 ± 0.4 kg/m3
7000 kPa, x2 = 0.6
  mass density: 892.6 ± 0.4 kg/m3
7000 kPa, x2 = 0.7
  mass density: 882.7 ± 0.5 kg/m3
7000 kPa, x2 = 0.8
  mass density: 858.2 ± 2.2 kg/m3
8000 kPa, x2 = 0
  mass density: 883.9 ± 0.5 kg/m3
8000 kPa, x2 = 0.1
  mass density: 888 ± 0.5 kg/m3
8000 kPa, x2 = 0.2
  mass density: 891.6 ± 0.4 kg/m3
8000 kPa, x2 = 0.3
  mass density: 894.6 ± 0.4 kg/m3
8000 kPa, x2 = 0.4
  mass density: 897 ± 0.4 kg/m3
8000 kPa, x2 = 0.5
  mass density: 897.7 ± 0.4 kg/m3
8000 kPa, x2 = 0.6
  mass density: 895 ± 0.4 kg/m3
8000 kPa, x2 = 0.7
  mass density: 886.2 ± 0.5 kg/m3
8000 kPa, x2 = 0.8
  mass density: 863.7 ± 0.5 kg/m3
8000 kPa, x2 = 0.9
  mass density: 800.6 ± 3.1 kg/m3
9000 kPa, x2 = 0
  mass density: 884.9 ± 0.5 kg/m3
9000 kPa, x2 = 0.1
  mass density: 889.1 ± 0.5 kg/m3
9000 kPa, x2 = 0.2
  mass density: 892.7 ± 0.5 kg/m3
9000 kPa, x2 = 0.3
  mass density: 896 ± 0.5 kg/m3
9000 kPa, x2 = 0.4
  mass density: 898.6 ± 0.4 kg/m3
9000 kPa, x2 = 0.5
  mass density: 899.6 ± 0.4 kg/m3
9000 kPa, x2 = 0.6
  mass density: 897.4 ± 0.5 kg/m3
9000 kPa, x2 = 0.7
  mass density: 889.4 ± 0.5 kg/m3
9000 kPa, x2 = 0.8
  mass density: 869 ± 0.5 kg/m3
9000 kPa, x2 = 0.9
  mass density: 813 ± 0.7 kg/m3
9000 kPa, x2 = 0.95
  mass density: 745.6 ± 2 kg/m3
10000 kPa, x2 = 0
  mass density: 885.9 ± 0.5 kg/m3
10000 kPa, x2 = 0.1
  mass density: 890.1 ± 0.5 kg/m3
10000 kPa, x2 = 0.2
  mass density: 893.9 ± 0.5 kg/m3
10000 kPa, x2 = 0.3
  mass density: 897.2 ± 0.5 kg/m3
10000 kPa, x2 = 0.4
  mass density: 900 ± 0.5 kg/m3
10000 kPa, x2 = 0.5
  mass density: 901.4 ± 0.5 kg/m3
10000 kPa, x2 = 0.6
  mass density: 899.7 ± 0.5 kg/m3
10000 kPa, x2 = 0.7
  mass density: 892.5 ± 0.5 kg/m3
10000 kPa, x2 = 0.8
  mass density: 873.9 ± 0.5 kg/m3
10000 kPa, x2 = 0.9
  mass density: 823.7 ± 0.7 kg/m3
10000 kPa, x2 = 0.95
  mass density: 767.4 ± 0.9 kg/m3
